# In patent US20250144051A1, “Colchicine for Treating Connective Tissue Disorders” (Khan Sciences, Inc., priority 2023, published 2025):
# Experiments:
# IL-33 = assay: In vitro tendinopathy model, IL-33 in tenocyte supernatant (MSD multiplex); format: cell-based, human; parameters: IL-33, % of negative control / reduction of IL-33 levels compared to negative control: concentration or dose not given beside the values
# Protocol: (§1) In Vitro Tendinopathy Model: The below experiment was conducted on an in vitro tendinopathy model. Cells derived from human tendons (tenocytes) can serve as an in vitro model of tendons. See Miller et al., “MicroRNA29a regulates IL-33-mediated tissue remodelling in tendon disease.” Nat Commun 6, 6774 (2015). Cultured tenocytes can be used to investigate the effects of pro-inflammatory cytokines upon the most basic elements of tendon structure. See Ellis et al., “Defining the profile: Characterizing cytokines in tendon injury to improve clinical therapy.” Journal of Immunology and Regenerative Medicine 16, 100059 (2022). When a tendon is injured, it triggers a local inflammatory response that involves immune cell infiltration and the expression of pro-inflammatory mediators. This inflammatory environment can modify tenocyte physiology, causing them to become activated and pro-inflammatory. Exposing the tenocytes to the pro-inflammatory cytokines TNF-α and IL-1β can mimic the effects of tendon injury. See Smith et al., “Tumour necrosis factor alpha, interleukin 1 beta and interferon gamma have detrimental effects on equine tenocytes that cannot be rescued by IL-1RA or mesenchymal stromal cell-derived factors.” Cell Tissue Res 391, 523-544 (2023).
# (§2) Cell Culture System. Immortalized, healthy, commercially-sourced human tenocyte cells (donor, patellar tendon) were reconstituted, seeded in T-75 flasks coated with bovine collagen I, and were maintained in Tenocyte Growth Medium supplemented with Tenocyte Growth Supplement, FBS, and penicillin/streptomycin. Culture conditions were maintained at 37° C. in a humidified 5% CO2 atmosphere. Cells were seeded at a density of 100,000 cells/well in commercially-sourced 24-well plates that were pre-coated with rat tail tendon collagen I.
# (§3) Treatment Protocol. This study was designed to follow the time-course of collagen production after cytokine exposure to mimic the effects of tendon injury. The time variable was cytokine exposure time (6 hours, 1 day, 3 days, and 5 days). Each of these cytokine exposure time periods was followed by a 24-hour drug treatment period. Inflammatory conditions were induced using a combination of IL-1β (1 nM; 17 ng/ml) and TNF-α (10 ng/ml). Two therapeutic interventions were evaluated. The treatment designated as “treatment A” was colchicine (2 nM). The treatment designated as “treatment B” was colchicine (2 nM) plus pyridoxine (100 μM).
# (§4) Experimental Groups. The treatment groups were as follows: (1) exposed to inflammatory cytokines plus treatment A; (2) exposed to inflammatory cytokines plus treatment B; (3) exposed to inflammatory cytokines (negative control, no drug). Further reference control groups were as follows: (A) treatment A without inflammatory cytokine exposure (drug-only control); (B) treatment B without inflammatory cytokine exposure (drug-only control); (C) healthy control (no inflammatory cytokines, no drug treatment).
# (§5) Sample Collection Times. Samples were collected at the following timepoints after initiation of cytokine exposure: • 6-hour samples: Collection at 30 hours (6 hr cytokine exposure+24 hr drug treatment) • 1-day samples: Collection at 48 hours (24 hr cytokine exposure+24 hr drug treatment) • 3-day samples: Collection at 96 hours (72 hr cytokine exposure+24 hr drug treatment) • 5-day samples: Collection at 144 hours (120 hr cytokine exposure+24 hr drug treatment, cell culture medium replenished on day-3)
# (§6) Assays Used. Collagen I (human) content was measured using enzyme-linked immunosorbent assay (ELISA) in cell culture supernatants. TGF-β1 in cell culture supernatants were measured using the MSD multiplex platform. Other inflammatory cytokines in cell culture supernatants were measured using the MSD multiplex platform.
# TNF-α = assay: In vitro tendinopathy model, TNF-α in tenocyte supernatant (MSD multiplex); format: cell-based, human
# Protocol: as §1, §2, §3, §4, §5, §6
# Collagen I (human) = assay: In vitro tendinopathy model, collagen I ELISA in tenocyte culture supernatant; format: cell-based
# Protocol: as §1, §2, §3, §4
# Sample Collection Times. […]
# as §6
# VEGF = assay: In vitro tendinopathy model, VEGF in tenocyte supernatant (MSD multiplex); format: cell-based, human; parameters: VEGF, % of negative control / increase of VEGF levels compared to negative control: concentration or dose not given beside the values
# Protocol: as §1, §2, §3, §4, §5, §6
# [1] = test system: patient with bilateral upper extremity tendonitis (repetitive strain injury); assay: Experimental clinical trial of oral colchicine in one patient with tendonitis; format: in vivo, human
# Protocol: An experimental trial was conducted on a patient, who was a person with bilateral upper extremity tendonitis for 7 months duration. The symptoms at the wrist radiated down to their fingers and up to their elbow. They reported the severity of their symptoms as 5-7 on a 1-10 standard discomfort scale. The cause of their widespread tendonitis was repetitive strain injury.
# The patient began treatment with 0.6 mg of colchicine by oral intake once daily. […] With continued daily dosing of colchicine for a total of two weeks duration, symptoms were nearly gone. They were free of symptoms while performing their activities of daily living. At the end of two weeks of treatment, the patient reported reduced severity of symptoms to a level of 2 on a standard 1-10 discomfort scale.
# The experimental trial was further extended to observe the effect of discontinuing the colchicine after initially achieving therapeutic success. Upon discontinuing, their tendonitis symptoms gradually returned. After 7 days without treatment, they reported the severity of their symptoms had worsened to 5 on the standard scale. After another 14 days without treatment (21 days cumulative), their symptoms remained at level 5, and occasionally rising to level 6 with increased arm use activity.
# [2] = 6 hr cytokine exposure + 24 hr drug treatment
# [3] = 1 day cytokine exposure + 24 hr drug treatment
# [4] = 3 days cytokine exposure + 24 hr drug treatment
# [5] = 5 days cytokine exposure + 24 hr drug treatment
smiles,measurement,setting,value
"COc1cc2c(c(OC)c1OC)-c1ccc(OC)c(=O)cc1[C@@H](NC(C)=O)CC2 [Treatment A, colchicine]","IL-33, % of healthy level",IL-33; [2],113.6%
same,"IL-33, % of negative control",IL-33; [2],55.0%
same,IL-33 level,"IL-33; 6 hr cytokine exposure + 24 hr drug treatment, negative control 18.0 pg/mL",9.9 pg/mL
same,"IL-33, % of healthy level",IL-33; [3],128.1%
same,"IL-33, % of negative control",IL-33; [3],85.1%
same,IL-33 level,"IL-33; 1 day cytokine exposure + 24 hr drug treatment, negative control 13.1 pg/mL",11.2 pg/mL
same,"IL-33, % of healthy level",IL-33; [4],87.1%
same,"IL-33, % of negative control",IL-33; [4],70.8%
same,IL-33 level,"IL-33; 3 days cytokine exposure + 24 hr drug treatment, negative control 10.7 pg/mL",7.6 pg/mL
same,"IL-33, % of healthy level",IL-33; [5],167.4%
same,"IL-33, % of negative control",IL-33; [5],85.4%
same,IL-33 level,"IL-33; 5 days cytokine exposure + 24 hr drug treatment, negative control 17.1 pg/ml",14.6 pg/mL
same,reduction of IL-33 levels compared to negative control,IL-33; at 6 hours,45%
same,IL-33 level,"IL-33; drug alone, without inflammatory cytokines, healthy control 8.7 pg/mL",3.4 pg/mL
same,"TNF-α, % of healthy level",TNF-α; [2],926.9%
same,"TNF-α, % of negative control",TNF-α; [2],116.7%
same,TNF-α level,"TNF-α; 6 hr cytokine exposure + 24 hr drug treatment, negative control 1678.4 pg/mL",1958.4 pg/mL
same,"TNF-α, % of healthy level",TNF-α; [3],806.3%
same,"TNF-α, % of negative control",TNF-α; [3],129.3%
same,TNF-α level,"TNF-α; 1 day cytokine exposure + 24 hr drug treatment, negative control 1317.2 pg/mL",1703.5 pg/mL
same,"TNF-α, % of healthy level",TNF-α; [4],617.0%
same,"TNF-α, % of negative control",TNF-α; [4],135.8%
same,TNF-α level,"TNF-α; 3 days cytokine exposure + 24 hr drug treatment, negative control 960.1 pg/mL",1303.6 pg/mL
same,"TNF-α, % of healthy level",TNF-α; [5],424.1%
same,"TNF-α, % of negative control",TNF-α; [5],108.7%
same,TNF-α level,"TNF-α; 5 days cytokine exposure + 24 hr drug treatment, negative control 824.1 pg/mL",895.9 pg/mL
same,TNF-α level,"TNF-α; drug alone, without inflammatory cytokines, healthy control 211.3 pg/mL",1.1 pg/mL
same,collagen I level,"Collagen I (human); 6 hr IL-1β + TNF-α exposure + 24 hr drug treatment, negative control 24 ng/mL",20 ng/mL
same,collagen I level,"Collagen I (human); 1 day IL-1β + TNF-α exposure + 24 hr drug treatment, negative control 20 ng/ml",19 ng/mL
same,collagen I level,"Collagen I (human); 3 days IL-1β + TNF-α exposure + 24 hr drug treatment, negative control 23 ng/ml",21 ng/mL
same,collagen I level,"Collagen I (human); 5 days IL-1β + TNF-α exposure + 24 hr drug treatment, negative control 28 ng/ml",28 ng/mL
same,collagen I level,"Collagen I (human); drug alone, without inflammatory cytokines, healthy control 30 ng/ml",17 ng/mL
same,"VEGF, % of healthy level",VEGF; [2],263.2%
same,"VEGF, % of negative control",VEGF; [2],157.0%
same,VEGF level,"VEGF; 6 hr cytokine exposure + 24 hr drug treatment, negative control 333.6 pg/mL",523.8 pg/mL
same,"VEGF, % of healthy level",VEGF; [3],401.8%
same,"VEGF, % of negative control",VEGF; [3],133.4%
same,VEGF level,"VEGF; 1 day cytokine exposure + 24 hr drug treatment, negative control 599.5 pg/mL",799.7 pg/mL
same,"VEGF, % of healthy level",VEGF; [4],314.0%
same,"VEGF, % of negative control",VEGF; [4],112.6%
same,VEGF level,"VEGF; 3 days cytokine exposure + 24 hr drug treatment, negative control 555.0 pg/mL",624.9 pg/mL
same,"VEGF, % of healthy level",VEGF; [5],229.0%
same,"VEGF, % of negative control",VEGF; [5],117.9%
same,VEGF level,"VEGF; 5 days cytokine exposure + 24 hr drug treatment, negative control 386.6 pg/mL",455.8 pg/mL
same,increase of VEGF levels compared to negative control,VEGF; at 6 hours,57%
same,VEGF level,"VEGF; drug alone, without inflammatory cytokines, healthy control 199.0 pg/mL",621.7 pg/mL
same,tendonitis symptoms,"[1]; 0.6 mg oral once daily, by the second day of treatment",began to improve
same,severity of symptoms on standard 1-10 discomfort scale,"[1]; 0.6 mg oral once daily, end of two weeks of treatment, before treatment 5-7",2
same,tendonitis symptoms,"[1]; 0.6 mg oral once daily, total of two weeks duration",nearly gone
same,severity of symptoms on standard 1-10 discomfort scale,[1]; 7 days without treatment after discontinuing colchicine,5
same,severity of symptoms on standard 1-10 discomfort scale,[1]; 21 days cumulative without treatment after discontinuing colchicine,5
